Data reported in patent US20230382904A1, “SUBSTITUTED 4-([1,2,4]TRIAZOLO[1,5-a]PYRIDIN-6-YL)THIOPHENE-2-CARBOXAMIDE DERIVATIVES AND USE THEREOF” (The Johns Hopkins University, priority 2020, published 2023).

Tests used:
[1] = target: DLK (Homo sapiens (Human), UniProt Q12852); assay: DLK biochemical assay (TR-FRET, MKK7 phosphorylation)
Summary of the method: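 Catalytic-domain DLK (10 nM) phosphorylates His-MKK7 (15 nM) with 60 μM ATP, 90 min at RT, in pH 7.5 HEPES buffer. Phospho-T275/S277 read by TR-FRET (Eu anti-phospho donor, XL665 anti-His acceptor) after 16 h detection, at 37° C. in 1536 or 4° C. in 384 format.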

[2] = target: LZK (Homo sapiens (Human), UniProt O43283); assay: LZK biochemical assay (TR-FRET, MKK7 phosphorylation)
Summary of the method: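 Catalytic-domain LZK (10 nM) phosphorylated His-MKK7 (15 nM) with 15 μM ATP for 90 min at RT. Phospho-T275/S277 detected by Eu-anti-phospho-MKK7/XL665-anti-His TR-FRET after 16 h at 32° C, using the 665/Eu ratio. Buffer: 50 mM Hepes pH 7.5, 10 mM MgCl2, 1 mM DTT.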

Chain of LZK (O43283 168-409): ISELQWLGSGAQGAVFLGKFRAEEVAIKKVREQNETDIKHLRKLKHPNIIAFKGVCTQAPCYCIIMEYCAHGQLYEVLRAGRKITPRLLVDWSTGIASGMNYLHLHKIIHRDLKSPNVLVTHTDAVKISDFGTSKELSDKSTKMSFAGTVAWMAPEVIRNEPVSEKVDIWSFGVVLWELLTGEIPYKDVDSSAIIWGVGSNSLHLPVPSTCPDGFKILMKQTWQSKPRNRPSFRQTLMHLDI
Chain of DLK (Q12852 1-520): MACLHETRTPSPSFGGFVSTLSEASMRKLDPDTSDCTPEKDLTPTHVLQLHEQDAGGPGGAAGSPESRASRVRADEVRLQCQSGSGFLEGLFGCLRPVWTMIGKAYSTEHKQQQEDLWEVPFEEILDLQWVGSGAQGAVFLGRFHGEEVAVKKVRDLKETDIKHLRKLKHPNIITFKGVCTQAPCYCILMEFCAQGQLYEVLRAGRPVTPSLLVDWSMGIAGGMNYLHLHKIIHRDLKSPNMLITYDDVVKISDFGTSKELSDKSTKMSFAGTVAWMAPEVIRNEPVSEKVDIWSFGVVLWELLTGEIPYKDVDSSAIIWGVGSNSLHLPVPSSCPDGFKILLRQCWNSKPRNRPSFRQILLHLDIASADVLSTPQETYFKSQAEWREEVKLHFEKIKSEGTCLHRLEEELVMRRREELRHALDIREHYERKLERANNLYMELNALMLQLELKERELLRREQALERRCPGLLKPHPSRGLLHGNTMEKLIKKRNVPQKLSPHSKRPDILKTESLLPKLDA

Row | Compound | IC50 [1] [µM] | IC50 [2] [µM]
1 | CC[C@H](C)NC(=O)c1cc(-c2csc(C(=O)N[C@H]3CCOc4ccccc43)c2)cn2nc(N)nc12 [Compound 144-3] | 0.0072 | 0.043
2 | CC[C@H](NC(=O)c1cc(-c2csc(C(=O)N[C@@H](C)c3ccc(F)cc3)c2)cn2nc(N)nc12)C(F)(F)F [Compound 144-5] | 0.63 | 2.6
3 | CC(C)NC(=O)c1cc(-c2csc(C(=O)NCc3ccc(F)cc3)c2)cc2nc(N)nn12 [Compound 145] | 0.0305 | 0.124
4 | CC(C)NC(=O)c1cc(-c2csc(C(=O)N[C@@H](C)c3ccccc3)c2)cc2nc(N)nn12 [Compound 146] | 0.012 | 0.071
5 | CC(C)NC(=O)c1cc(-c2csc(C(=O)N[C@@H](C)c3ccc(F)cc3)c2)cc2nc(N)nn12 [Compound 147] | 0.021 | 0.1
6 | COc1cccc(CNC(=O)c2cc(-c3cc(C(=O)NC(C)C)n4nc(N)nc4c3)cs2)c1 [Compound 148] | 0.064 | 0.23
7 | CC(C)NC(=O)c1cc(-c2csc(C(=O)NCc3ccccc3)c2)cc2nc(N)nn12 [Compound 149] | 0.028 | 0.11
8 | CC(C)NC(=O)c1cc(-c2csc(C(=O)N[C@H](C)c3ccc(F)cc3)c2)cc2nc(N)nn12 [Compound 153] | 0.032 | 0.28
9 | CCNC(=O)c1cc(-c2csc(C(=O)NCc3ccc(F)cc3)c2)cc2nc(N)nn12 [Compound 157] | 0.18 | 0.87
10 | CC[C@H](C)NC(=O)c1cc(-c2csc(C(=O)N[C@@H](COC)c3ccc(F)cc3)c2)cc2nc(N)nn12 [Compound 159] | 0.0029 | 0.016
11 | CC[C@H](C)NC(=O)c1cc(-c2csc(C(=O)NCc3ccc(F)cc3)c2)cc2nc(N)nn12 [Compound 161] | 0.021 | 0.043
12 | Nc1nc2ccc(-c3csc(C(=O)NCc4ccccc4)c3)cn2n1 [Compound 168] | 0.38 | 4.6
13 | Nc1nc2ccc(-c3csc(C(=O)NC4CCCCC4)c3)cn2n1 [Compound 169] | 1.1 | > 30
14 | Nc1nc2ccc(-c3csc(C(=O)NC4CCC4)c3)cn2n1 [Compound 171] | 0.97 | > 30
15 | Nc1nc2ccc(-c3csc(C(=O)NC4CC4)c3)cn2n1 [Compound 172] | 2.6 | > 30
16 | CC(C)NC(=O)c1cc(-c2ccc3nc(N)nn3c2)cs1 [Compound 173] | 2.15 | 19

Row | Compound | IC50 [1] [µM] | IC50 [2] [µM]
17 | CN(C(=O)c1cc(-c2ccc3nc(N)nn3c2)cs1)C1CCCCC1 [Compound 175] | 9.55 | > 30
18 | Nc1nc2ccc(-c3csc(C(=O)NC4CCCC(C(F)(F)F)C4)c3)cn2n1 (centres unmarked) [Compound 176] | 1 | > 30
19 | CN1CCCC(NC(=O)c2cc(-c3ccc4nc(N)nn4c3)cs2)C1 (centres unmarked) [Compound 181] | 3.5 | > 30
20 | Nc1nc2ccc(-c3csc(C(=O)NC4CCCOC4)c3)cn2n1 (centres unmarked) [Compound 184] | 1.95 | 24
21 | Nc1nc2ccc(-c3csc(C(=O)NC4CCOCC4)c3)cn2n1 [Compound 185] | 1.7 | 26
22 | Nc1nc2ccc(-c3csc(C(=O)NCC4CCOCC4)c3)cn2n1 [Compound 188] | 2 | > 30
23 | Nc1nc2ccc(-c3csc(C(=O)NCc4cccc(OC(F)(F)F)c4)c3)cn2n1 [Compound 192] | 0.46 | > 30
24 | Nc1nc2ccc(-c3csc(C(=O)NCc4cccc(Cl)c4)c3)cn2n1 [Compound 193] | 0.615 | 5
25 | CC(C)Oc1cccc(CNC(=O)c2cc(-c3ccc4nc(N)nn4c3)cs2)c1 [Compound 196] | 0.35 | 9.49
26 | CN1C2CCC1CC(NC(=O)c1cc(-c3ccc4nc(N)nn4c3)cs1)C2 (centres unmarked) [Compound 201] | 2.8 | > 30
27 | Nc1nc2ccc(-c3csc(C(=O)NCC4COCCO4)c3)cn2n1 (centres unmarked) [Compound 209] | 2.5 | > 30
28 | Nc1nc2ccc(-c3csc(C(=O)NCc4ccc(F)c(F)c4)c3)cn2n1 [Compound 212] | 1.07 | 9.6
29 | COc1cccc(CN(C)C(=O)c2cc(-c3ccc4nc(N)nn4c3)cs2)c1 [Compound 213] | 2.45 | 7.6
30 | CN1CCO[C@H](CNC(=O)c2cc(-c3ccc4nc(N)nn4c3)cs2)C1 [Compound 214] | 1.75 | 25
31 | Nc1nc2ccc(-c3csc(C(=O)NCc4ccccc4C(F)(F)F)c3)cn2n1 [Compound 220] | 0.58 | 22

Further molecules by falling IC50 [1], results first:

Row | IC50 [1] [µM] | IC50 [2] [µM] | Compound
32 | 2 | > 30 | CCN1CCCC(NC(=O)c2cc(-c3ccc4nc(N)nn4c3)cs2)C1 (centres unmarked) [Compound 180]
33 | 1.6 | > 30 | CCO[C@H]1CC[C@H](NC(=O)c2cc(-c3ccc4nc(N)nn4c3)cs2)CC1 [Compound 177]
34 | 1.6 | > 30 | Nc1nc2ccc(-c3csc(C(=O)NCC4CCCOC4)c3)cn2n1 (centres unmarked) [Compound 197]
35 | 1.24 | 9.2 | Nc1nc2ccc(-c3csc(C(=O)NCc4c(F)cccc4F)c3)cn2n1 [Compound 221]
36 | 1.14 | 5.9 | Nc1nc2ccc(-c3csc(C(=O)NCc4cccc(F)c4)c3)cn2n1 [Compound 216]
37 | 1.01 | 13 | COc1ccc(CNC(=O)c2cc(-c3ccc4nc(N)nn4c3)cs2)cc1 [Compound 203]
38 | 0.97 | 18 | Nc1nc2ccc(-c3csc(C(=O)NCCc4ccccc4)c3)cn2n1 [Compound 211]
39 | 0.82 | > 30 | COc1ccc(CNC(=O)c2cc(-c3ccc4nc(N)nn4c3)cs2)cc1OC [Compound 202]
40 | 0.8 | 2.5 | CC[C@H](NC(=O)c1cc(-c2csc(C(=O)NCc3ccc(F)cc3)c2)cn2nc(N)nc12)C(F)(F)F [Compound 144-4]
41 | 0.72 | 30 | Nc1nc2ccc(-c3csc(C(=O)NCCCc4ccccc4)c3)cn2n1 [Compound 215]
42 | 0.71 | > 30 | Nc1nc2ccc(-c3csc(C(=O)NCC4CCCCC4)c3)cn2n1 [Compound 187]
43 | 0.67 | > 30 | Cc1cccc(CNC(=O)c2cc(-c3ccc4nc(N)nn4c3)cs2)c1 [Compound 194]
44 | 0.55 | 28 | Nc1nc2ccc(-c3csc(C(=O)NCc4cccnc4)c3)cn2n1 [Compound 206]
45 | 0.53 | > 30 | Nc1nc2ccc(-c3csc(C(=O)NCC4CCCC4)c3)cn2n1 [Compound 190]
46 | 0.52 | > 30 | Nc1nc2ccc(-c3csc(C(=O)NC4CCCC4)c3)cn2n1 [Compound 170]
47 | 0.505 | 3.1 | Nc1nc2ccc(-c3csc(C(=O)NCc4ccccc4Cl)c3)cn2n1 [Compound 219]
48 | 0.48 | 8.8 | Nc1nc2ccc(-c3csc(C(=O)NCc4cccc(OC(F)F)c4)c3)cn2n1 [Compound 195]

Row | IC50 [1] [µM] | IC50 [2] [µM] | Compound
49 | 0.47 | 27 | Nc1nc2ccc(-c3csc(C(=O)NCc4cccc(OCCN5CCOCC5)c4)c3)cn2n1 [Compound 207]
50 | 0.44 | > 30 | Nc1nc2ccc(-c3csc(C(=O)NC4CCCCCC4)c3)cn2n1 [Compound 174]
51 | 0.32 | > 30 | CCOc1cccc(CNC(=O)c2cc(-c3ccc4nc(N)nn4c3)cs2)c1 [Compound 191]
52 | 0.3 | > 30 | Nc1nc2ccc(-c3csc(C(=O)NCc4cccc(OCC(F)(F)F)c4)c3)cn2n1 [Compound 204]
53 | 0.23 | 12 | Nc1nc2ccc(-c3csc(C(=O)NCc4cccc(OC5CC5)c4)c3)cn2n1 [Compound 205]
54 | 0.133 | 25 | COc1cccc(CNC(=O)c2cc(-c3ccc4nc(N)nn4c3)cs2)c1 [Compound 182]
55 | 0.046 | 0.49 | CC(C)NC(=O)c1cc(-c2csc(C(=O)NC3CCCCC3)c2)cc2nc(N)nn12 [Compound 150]
56 | 0.038 | 0.77 | CC[C@@H](C)NC(=O)c1cc(-c2csc(C(=O)N[C@@H](CC)c3ccc(F)cc3)c2)cn2nc(N)nc12 [Compound 144]
57 | 0.036 | 0.1 | CC(C)NC(=O)c1cc(-c2csc(C(=O)NCc3nc4ccccc4o3)c2)cc2nc(N)nn12 [Compound 151]
58 | 0.033 | 0.56 | CCNC(=O)c1cc(-c2csc(C(=O)N[C@@H](C)c3ccc(F)cc3)c2)cc2nc(N)nn12 [Compound 158]
59 | 0.0075 | 0.079 | CC[C@H](NC(=O)c1cc(-c2cc(C(=O)N[C@@H](C)CC)n3nc(N)nc3c2)cs1)c1ccc(F)cc1 [Compound 156]
60 | 0.0063 | 0.052 | CC[C@H](C)NC(=O)c1cc(-c2csc(C(=O)N[C@@H](C)c3ccc(F)cc3)c2)cc2nc(N)nn12 [Compound 160]
61 | 0.0049 | 0.089 | CC[C@H](NC(=O)c1cc(-c2cc(C(=O)NC(C)C)n3nc(N)nc3c2)cs1)c1ccc(F)cc1 [Compound 154]
62 | 0.0046 | 0.042 | CC[C@H](NC(=O)c1cc(-c2cc(C(=O)NC(C)CF)c3nc(N)nn3c2)cs1)c1ccc(F)cc1 (some centres unmarked) [Compound 144-1]
63 | 0.00415 | 0.057 | CC[C@H](NC(=O)c1cc(-c2cc(C(=O)NC(C)C)n3nc(N)nc3c2)cs1)c1ccccc1 [Compound 152]
64 | 0.0035 | 0.077 | CC[C@H](NC(=O)c1cc(-c2cc(C(=O)N[C@H]3CCOC3)n3nc(N)nc3c2)cs1)c1ccc(F)cc1 [Compound 162]
